Publication PMC10359453, “Mutational and structural analyses of UdgX: insights into the active site pocket architecture and its evolution” (Nucleic Acids Research, 2023)

Key:
Experiment in all cases: X-ray crystal structure of complex
Format in all cases: binding
MsmUdgX [1] = target: T1, MsmUdgX (Mycolicibacterium smegmatis, UniProt A0QP43, H109A); conditions: uracil excised from 5-mer ssDNA TTUTT, DNA backbone not modelled; active site; pH 7.0
T1 construct: gene MSMEG_0265; N-terminal 6xHis tag (pET14b), expressed in E. coli Rosetta (DE3), Ni-NTA and Superdex-75 purified; 4Fe-4S protein
T1 sequence (A0QP43 entry or part of it H109A): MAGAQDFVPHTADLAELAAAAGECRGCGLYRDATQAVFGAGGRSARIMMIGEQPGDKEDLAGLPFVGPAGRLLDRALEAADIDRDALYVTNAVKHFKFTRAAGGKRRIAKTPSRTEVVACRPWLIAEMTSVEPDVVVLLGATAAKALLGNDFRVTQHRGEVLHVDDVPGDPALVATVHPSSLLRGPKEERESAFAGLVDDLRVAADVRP

MsmUdgX [2] = target: T2, MsmUdgX (Mycolicibacterium smegmatis, UniProt A0QP43, H109S/R184A); conditions: uracil excised from 5-mer ssDNA TTUTT, DNA backbone not modelled; active site; pH 7.0
T2 construct: gene MSMEG_0265; N-terminal 6xHis tag (pET14b), expressed in E. coli Rosetta (DE3), Ni-NTA and Superdex-75 purified; 4Fe-4S protein
T2 sequence (A0QP43 entry or part of it H109S/R184A): as the sequence (A0QP43 entry or part of it H109A) above, with A109S, R184A counted along it

MsmUdgX [3] = target: T3, MsmUdgX (Mycolicibacterium smegmatis, UniProt A0QP43, H109C); conditions: uracil excised from 5-mer ssDNA TTUTT, DNA backbone not modelled; active site; pH 7.0
T3 construct: gene MSMEG_0265; N-terminal 6xHis tag (pET14b), expressed in E. coli Rosetta (DE3), Ni-NTA and Superdex-75 purified; 4Fe-4S protein
T3 sequence (A0QP43 entry or part of it H109C): as the sequence (A0QP43 entry or part of it H109A) above, with A109C counted along it

MsmUdgX [4] = target: T4, MsmUdgX (Mycolicibacterium smegmatis, UniProt A0QP43, H109G); conditions: uracil excised from 5-mer ssDNA TTUTT, DNA backbone not modelled; active site; pH 7.0
T4 construct: gene MSMEG_0265; N-terminal 6xHis tag (pET14b), expressed in E. coli Rosetta (DE3), Ni-NTA and Superdex-75 purified; 4Fe-4S protein
T4 sequence (A0QP43 entry or part of it H109G): as the sequence (A0QP43 entry or part of it H109A) above, with A109G counted along it

MsmUdgX [5] = target: T5, MsmUdgX (Mycolicibacterium smegmatis, UniProt A0QP43); conditions: uracil excised from 5-mer ssDNA TTUTT; active site; pH 7.0
T5 construct: gene MSMEG_0265; N-terminal 6xHis tag (pET14b), expressed in E. coli Rosetta (DE3), Ni-NTA and Superdex-75 purified; 4Fe-4S protein
T5 sequence (A0QP43 1-209): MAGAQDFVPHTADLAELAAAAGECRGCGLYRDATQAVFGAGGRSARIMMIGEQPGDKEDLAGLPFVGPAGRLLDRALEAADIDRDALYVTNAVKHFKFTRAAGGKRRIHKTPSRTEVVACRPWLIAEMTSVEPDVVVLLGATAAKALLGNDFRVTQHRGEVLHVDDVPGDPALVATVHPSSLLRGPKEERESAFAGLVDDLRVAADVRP

MsmUdgX [6] = target: T6, MsmUdgX (Mycolicibacterium smegmatis, UniProt A0QP43, H109K); conditions: uracil excised from 5-mer ssDNA TTUTT, DNA backbone not modelled; active site; pH 7.0
T6 construct: gene MSMEG_0265; N-terminal 6xHis tag (pET14b), expressed in E. coli Rosetta (DE3), Ni-NTA and Superdex-75 purified; 4Fe-4S protein
T6 sequence (A0QP43 entry or part of it H109K): as the sequence (A0QP43 entry or part of it H109A) above, with A109K counted along it

MsmUdgX [7] = target: T7, MsmUdgX (Mycolicibacterium smegmatis, UniProt A0QP43, H109Q); conditions: uracil excised from 5-mer ssDNA TTUTT, DNA backbone not modelled; active site; pH 7.0
T7 construct: gene MSMEG_0265; N-terminal 6xHis tag (pET14b), expressed in E. coli Rosetta (DE3), Ni-NTA and Superdex-75 purified; 4Fe-4S protein
T7 sequence (A0QP43 entry or part of it H109Q): as the sequence (A0QP43 entry or part of it H109A) above, with A109Q counted along it

X-ray crystal structure of complex (MsmUdgX [2]): H109S/R184A (orange, PDB ID: 8IIT) | X-ray crystal structure of complex (MsmUdgX [3]): H109C (magenta, PDB ID: 8III) | X-ray crystal structure of complex (MsmUdgX [4]): H109G (cyan, PDB ID: 8IIL) | X-ray crystal structure of complex (MsmUdgX [7]): H109Q (green, PDB ID: 8IIP)
Compound: O=c1cc[nH]c(=O)[nH]1 [uracil]
X-ray crystal structure of complex (MsmUdgX [1]): H109A (brown, PDB ID: 8IIG), mutants with uracil in the active sites cavity | X-ray crystal structure of complex (MsmUdgX [5]): Uracil bound in the active site of MsmUdgX, post its cleavage from the DNA backbone | X-ray crystal structure of complex (MsmUdgX [6]): Crystal structures of H109K (yellow, (PDB ID: 8IIN)
